Laboratory results: US20180217163A1, “TREATMENT OF NEURODEGENERATIVE CONDITIONS USING PKC ACTIVATORS AFTER DETERMINING THE PRESENCE OF THE APOE4 ALLELE” (priority 2015, published 2018)
Where two headings read alike, the source gives them in different places.

What was measured:
[1] = system: PKC; settings: cited from earlier work
[2] = system: HDAC4; assay: HDAC4 nuclear translocation in SH-SY5Y cells (immunoblot); type: cell-based, human
Method: (§1) Human SH-SY5Y neuroblastoma cells (Sigma-Aldrich), were cultured in 45% F12K, 45% MEM, and 10% FBS. Cells were treated with cholesterol, ASPD, ApoE3/ApoE4+cholesterol, or PKC activators for 24 h. Cholesterol was dissolved in ethanol. ApoE (20 nM) and cholesterol (100 μM) were mixed separately into the cultures. To block the ApoE receptors, cells were treated with RAP for 30 min before adding ApoE. Human primary neurons (ScienCell Research Laboratories) were plated on poly-L-lysine-coated plates and were maintained in neuronal medium (ScienCell Research Laboratories) supplemented with the neuronal growth supplements (ScienCell Research Laboratories). Half of the culture medium was changed every 3 d and fresh activators were added with every medium change to maintain viable neurons.
A PBS solution of 5×10^6 Human SH-SY5Y neuroblastoma cells was centrifuged and the resultant cell pellet was resuspended and washed twice with cold PBS. After the second wash, the cell pellet was resuspended in 500 μl of hypotonic buffer (20 mM Tris-Cl, pH 7.4, 10 mM NaCl, 3 mM MgCl2, and 1 mM PMSF) and incubated on ice for 15 min. Next, 25 μl of 10% NP-40 was added to the cell suspension and the sample was vortexed for 10 s. The homogenate was centrifuged for 10 min at 1000×g at 4° C. to obtain the cytoplasmic fraction (supernatant) and nuclear fraction (pellet). […] Protein concentration was measured using the Coomassie Plus (Bradford) Protein Assay kit (Pierce).
Protein in samples of the supernetant and nuclear fractions was separated by SDSPAGE in a 4-20% gradient Tris-Glycine gel (Invitrogen). […] The immunoblot proteins were detected using ImageQuant RT-ECL (GE Life Sciences) and densitometric quantification was performed using IMAL software, which was developed at our institution. […]

[3] = system: HDAC6; assay: HDAC6 nuclear translocation in SH-SY5Y cells (immunoblot); type: cell-based, human
Method: as §1
A PBS solution of 5×10^6 Human SH-SY5Y neuroblastoma cells was centrifuged and the resultant cell pellet was resuspended and washed twice with cold PBS. After the second wash, the cell pellet was resuspended in 500 μl of hypotonic buffer (20 mM Tris-Cl, pH 7.4, 10 mM NaCl, 3 mM MgCl2, and 1 mM PMSF) and incubated on ice for 15 min. Next, 25 μl of 10% NP-40 was added to the cell suspension and the sample was vortexed for 10 s. The homogenate was centrifuged for 10 min at 1000×g at 4° C. to obtain the cytoplasmic fraction (supernatant) and nuclear fraction (pellet). After removing the supernetant, the nuclear pellet was resuspended in 50 μl of complete cell extraction buffer (100 mM Tris-Cl, pH 7.4, 2 mM Na3VO4, 100 mM NaCl, 1% Triton X-100, 1 mM EDTA, 10% glycerol, 1 mM EGTA, 0.1% SDS, 1 mM NaF, 0.5% deoxycholate, 20 mM Na4P2O7, and 1 mM PMSF) and incubated on ice for 30 min with vortexing at 10 min intervals. The nuclear lysate was centrifuged at 14,000×g for 30 min at 4° C. to obtain the nuclear fraction (supernatant). Protein concentration was measured using the Coomassie Plus (Bradford) Protein Assay kit (Pierce).
Protein in samples of the supernetant and nuclear fractions was separated by SDSPAGE in a 4-20% gradient Tris-Glycine gel (Invitrogen). The protein was then transferred to nitrocellulose membrane. The membrane was blocked with BSA at room temperature for 15 min and incubated with primary antibody overnight at 4° C. After incubation, the membrane was washed thrice (3×) with TBS-T (Tris-buffered saline-Tween 20) and further incubated with alkaline-phosphatase-conjugated secondary antibody (Jackson Immunoresearch Laboratories) at 1:10,000 dilution for 45 min. Following incubation, the membrane was washed 3× with TBS-T and developed using the 1-step NBT-BCIP substrate (Pierce). […] The immunoblot proteins were detected using ImageQuant RT-ECL (GE Life Sciences) and densitometric quantification was performed using IMAL software, which was developed at our institution. […]

[4] = in vivo; cited from earlier work
[5] = biological target: T1, PKCε (Mus musculus, UniProt P16054); assay: PKCε activation in brain of mice (FIG. 11); type: in vivo; settings: single intravenous injection
T1 construct: from tissue; host or cells: mouse brain
T1 sequence (P16054 1-737): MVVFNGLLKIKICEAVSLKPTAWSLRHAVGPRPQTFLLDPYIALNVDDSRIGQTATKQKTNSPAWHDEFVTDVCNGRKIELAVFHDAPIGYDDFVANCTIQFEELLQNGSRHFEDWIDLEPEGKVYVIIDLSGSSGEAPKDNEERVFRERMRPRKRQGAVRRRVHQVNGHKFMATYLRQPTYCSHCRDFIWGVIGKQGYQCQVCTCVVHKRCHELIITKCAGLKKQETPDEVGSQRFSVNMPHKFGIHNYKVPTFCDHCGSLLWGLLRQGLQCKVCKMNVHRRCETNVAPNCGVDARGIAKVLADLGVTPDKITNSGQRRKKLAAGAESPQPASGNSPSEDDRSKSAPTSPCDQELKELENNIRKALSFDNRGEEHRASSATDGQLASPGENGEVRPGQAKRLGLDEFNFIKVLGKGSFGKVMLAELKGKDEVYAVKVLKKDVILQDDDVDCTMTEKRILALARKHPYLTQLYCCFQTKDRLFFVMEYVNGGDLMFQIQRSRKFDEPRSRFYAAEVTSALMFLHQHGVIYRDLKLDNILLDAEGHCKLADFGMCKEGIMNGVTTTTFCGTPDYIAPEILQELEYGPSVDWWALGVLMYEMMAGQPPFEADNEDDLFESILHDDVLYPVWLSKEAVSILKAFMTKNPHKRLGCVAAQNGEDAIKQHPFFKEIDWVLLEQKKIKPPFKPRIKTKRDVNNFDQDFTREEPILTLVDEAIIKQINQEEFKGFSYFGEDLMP

[6] = biological target: T2, PKCε (Homo sapiens, UniProt Q02156); assay: Phase IIa clinical trial: PKCε levels after bryostatin; type: in vivo
T2 construct: from tissue; host or cells: blood of trial subjects
T2 sequence (Q02156 1-737): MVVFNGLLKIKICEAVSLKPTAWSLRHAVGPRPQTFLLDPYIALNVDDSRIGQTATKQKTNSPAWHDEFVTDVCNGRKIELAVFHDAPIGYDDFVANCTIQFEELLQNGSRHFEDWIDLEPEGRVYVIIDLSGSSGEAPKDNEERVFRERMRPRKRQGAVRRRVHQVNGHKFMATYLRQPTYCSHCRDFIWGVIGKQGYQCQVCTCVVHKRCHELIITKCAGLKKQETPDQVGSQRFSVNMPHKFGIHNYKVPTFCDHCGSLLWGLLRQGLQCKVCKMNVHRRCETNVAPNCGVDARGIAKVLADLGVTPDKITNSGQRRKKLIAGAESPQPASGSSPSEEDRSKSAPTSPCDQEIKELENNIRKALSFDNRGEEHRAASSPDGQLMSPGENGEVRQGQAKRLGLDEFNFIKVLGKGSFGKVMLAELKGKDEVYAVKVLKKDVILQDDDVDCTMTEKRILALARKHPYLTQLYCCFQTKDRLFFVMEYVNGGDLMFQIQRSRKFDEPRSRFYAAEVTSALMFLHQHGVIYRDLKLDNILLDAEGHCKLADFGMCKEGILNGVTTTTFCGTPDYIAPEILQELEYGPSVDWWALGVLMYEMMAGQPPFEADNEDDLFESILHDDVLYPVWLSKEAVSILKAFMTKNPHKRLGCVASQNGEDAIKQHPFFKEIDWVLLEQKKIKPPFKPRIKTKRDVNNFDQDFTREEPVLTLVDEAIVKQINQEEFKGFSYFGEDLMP

[7] = cited from earlier work
[8] = system: PKC; settings: cited from earlier work; remark: listed apart in the source
[9] = biological target: PKC; settings: [3H] phorbol dibutyrate competition; cited from earlier work
[10] = system: squamous cell carcinoma and melanoma; settings: used topically; cited from earlier work
[11] = system: NCI 60 cell line screen; settings: cited from earlier work
[12] = biological target: protein kinase C; settings: (-)-enantiomer; cited from earlier work
[13] = system: PKCε mRNA; assay: PKCε mRNA expression in SH-SY5Y cells (qRT-PCR); type: cell-based, human; settings: ASPD-treated cells
Method: as §1
qRT-PCR was performed and the results analyzed as described previously (Schmittgen et al., Analyzing real-time PCR data by the comparative C(T) method, Nat. Protoc., 3:1101-1108, 2008; Sen et al., 2012 supra). Total RNA (500 ng) was reverse transcribed using oligo(dT) and Superscript III (Invitrogen) at 50° C. for 1 h. The cDNA products were analyzed using a LightCycler 480 II (Roche) PCR machine and LightCycler 480 SYBR Green 1 master mix following the manufacturer's protocol. […]

[14] = system: BDNF mRNA; assay: BDNF mRNA expression in SH-SY5Y cells (qRT-PCR); type: cell-based, human; settings: ASPD-treated cells
Method: as §1
qRT-PCR was performed and the results analyzed as described previously (Schmittgen et al., Analyzing real-time PCR data by the comparative C(T) method, Nat. Protoc., 3:1101-1108, 2008; Sen et al., 2012 supra). Total RNA (500 ng) was reverse transcribed using oligo(dT) and Superscript III (Invitrogen) at 50° C. for 1 h. The cDNA products were analyzed using a LightCycler 480 II (Roche) PCR machine and LightCycler 480 SYBR Green 1 master mix following the manufacturer's protocol. Primers for PKCε (forward primer: […], reverse primer: […], PKCα (forward-[…], reverse: […]), PKC (forward: […], reverse: CCGATG […]), GAPDH (forward: […], reverse: […]), and BDNF (forward: […], reverse: […]; Origene).

[15] = ApoE4+ASPD induced translocation, 24 h
[16] = A-ring bryologs, read-out: affinity for PKC
[17] = RAP 100 nM, 30 min before ApoE+Chol 24 h

CCCCCCCC(=O)O[C@H]1/C(=C/C(=O)OC)C[C@H]2C[C@H](CO)OC(=O)C[C@H](O)C[C@@H]3CCC[C@H](C[C@@H]4CCO[C@H](/C=C/C(C)(C)[C@]1(O)O2)O4)O3 [Analog 1]
affinity for PKC [1]: highest affinity for PKC
Ki ([1]; read-out: PKC Affin): 0.25 nM

CCC/C=C/C=C/C(=O)O[C@H]1/C(=C/C(=O)OC)C[C@H]2C[C@H]([C@@H](C)O)OC(=O)C[C@H](O)C[C@@H]3C[C@H](OC(C)=O)C(C)(C)C(O)(C[C@@H]4C/C(=C/C(=O)OC)C[C@H](/C=C/C(C)(C)[C@]1(O)O2)O4)O3 [Bryostatin-1]
reduction of nuclear import of HDAC4 [2, 15]: 40±8.4%
reduction in nuclear HDAC6 [3, 15]: 46±9.2%
dose exhibiting no toxicity [4]: 20 μg/week
dose that may be associated with muscle pain [4]: more than 35 μg/week

CCC/C=C/C=C/C(=O)O[C@H]1/C(=C/C(=O)OC)C[C@H]2C[C@H]([C@@H](C)O)OC(=O)C[C@H](O)C[C@@H]3C[C@H](OC(C)=O)C(C)(C)[C@](O)(C[C@@H]4C/C(=C/C(=O)OC)C[C@H](/C=C/C(C)(C)[C@]1(O)O2)O4)O3 [Bryostatin-1]
PKCε expression and levels in the brain [5]: activate PKCε expression and increase PKCε levels in the brain of mice
synthesis of PKCε [6]: increases the synthesis of PKCε
time of highest PKCε levels post administration [6]: 1 h
t1/2 in the blood stream ([7]; blood): 1 h
crossing of the blood-brain barrier ([7]; in vivo): crosses the blood-brain barrier
part of initial dose in the blood at 100 hrs ([7]; intravenous injection, 100 hrs): 1%
time detectable in the blood after a single injection ([7]; single injection): 14 days

CCC1CC1CC1CC1CC1CC1CC1CC1CC1CC1CC1CC1CCC(=O)OC (centres unmarked) [DHA-CP6, cyclopropanated docosahexaenoic acid methyl ester]
effective concentration [8]: 10 nM

CC1=C[C@]23C(=O)[C@@H](C=C(COC(=O)c4ccccc4)[C@@H](O)[C@]2(O)[C@H]1OC(=O)c1ccccc1)[C@H]1[C@@H](C[C@H]3C)C1(C)C [Ingenol 3,20-dibenzoate]
Ki [9]: 240 nM

C/C=C(/C)C(=O)O[C@H]1C(C)=C[C@]23C(=O)[C@@H](C=C(CO)[C@@H](O)[C@]12O)[C@H]1[C@@H](C[C@H]3C)C1(C)C [Ingenol-3-angelate]
antitumor activity [10]: exhibits antitumor activity

CC1=CC[C@H](C)C(C)(C)[C@@H]1/C=C/C(C)=C/CC[C@@]1(CO)[C@H](CCCO)/C(=C(/C)C=O)CC[C@]1(C)O [Iripallidal]
GI50 (concentration required to inhibit growth by 50%) [11]: from micromolar to nanomolar range

CCCCCCCCc1ccc2c3c(c[nH]c13)C[C@@H](CO)NC(=O)[C@H](C(C)C)N2C [Octylindolactam V]
EC50 [12]: 29 nM

CCCCCCCC(=O)OC1C(=CC(=O)OC)CC2CC(CO)OC(=O)CC(O)CCOC(C(C)(C)C)CC3CCOC(C=CC(C)(C)C1(O)O2)O3 (centres unmarked) [bryolog 3]
Ki [1, 16]: 6.5 nM

CCCCCCCC(=O)OC1C(=CC(=O)OC)CC2CC(CO)OC(=O)CC(O)CCOC(c3ccccc3)CC3CCOC(C=CC(C)(C)C1(O)O2)O3 (centres unmarked) [bryolog 4]
Ki [1, 16]: 2.3 nM

CCCCCCCC(=O)OC1C(=CC(=O)OC)CC2CC(CO)OC(=O)CC(O)CCOC(CCCc3ccc(Br)cc3)CC3CCOC(C=CC(C)(C)C1(O)O2)O3 (centres unmarked) [bryolog 5]
Ki [1, 16]: 1.9 nM

ASPD+Chol: amyloid-β amylospheroids prepared from Aβ1-42, plus cholesterol
HDAC6 in the nucleus, percentage of total protein ([3]; 24 h, immunoblot): 21.7±2.8%
PKCε mRNA levels [13]: 0.58±0.06 fold
BDNF mRNA levels [14]: 0.62±0.05 fold

B1: RAP: recombinant human receptor-associated protein, ApoE receptor binding protein, from Molecular Innovations (protein, UniProt P30533 35-357, looked up)
Alpha-2-macroglobulin …: YSREKNQPKPSPKRESGEEFRMEKLNQLWEKAQRLHLPPVRLAELHADLKIQERDELAWKKLKLDGLDEDGEKEARLIRNLNVILAKYGLDGKKDARQVTSNSLSGTQEDGLDDPRLEKLWHKAKTSGKFSGEELDKLWREFLHHKEKVHEYNVLLETLSRTEEIHENVISPSDLSDIKGSVLHSRHTELKEKLRSINQGLDRLRRVSHQGYSTEAEFEEPRVIDLWDLAQSANLTDKELEAFREELKHFEAKIEKHNHYQKQLEIAHEKLRHAESVGDGERVSRSREKHALLEGRTKELGYTVKKHLQDLSGRISRARHNEL
effect of RAP pretreatment on ApoE-mediated nuclear translocation of HDAC4 [2, 17]: abolished the effects of ApoE3+Chol and ApoE4+Chol
effect of RAP pretreatment on ApoE-mediated nuclear translocation of HDAC6 [3, 17]: abolished the effects of ApoE3+Chol and ApoE4+Chol
